Reference: the NIST ThermoML archive (doi:10.1021/acs.jced.7b00904)
Numbers after ± are expanded uncertainties.

Assay: refractive index (Na D-line) (dimensionless); wn = mass fraction of the nth substance listed
Conditions: 101.3 kPa, Liquid, Standard Abbe refractometry

N#C[S-].[K+] [potassium thiocyanate] + O
refractive index
Conditions	293 K	298 K	303 K	308 K	313 K
w1 = 0.218	1.3754 ± 0.00058	1.37475 ± 0.00058	1.37415 ± 0.00058	1.3731 ± 0.00058	1.3728 ± 0.00058
w1 = 0.244	1.38075 ± 0.00058	1.3802 ± 0.00058	1.3796 ± 0.00058	1.37855 ± 0.00058	1.3779 ± 0.00058
w1 = 0.265	1.38565 ± 0.00058	1.3852 ± 0.00058	1.3844 ± 0.00058	1.383 ± 0.00058	1.38205 ± 0.00058
w1 = 0.291	1.39085 ± 0.00058	1.3906 ± 0.00058	1.3896 ± 0.00058	1.38835 ± 0.00058	1.3876 ± 0.00058
w1 = 0.321	1.39825 ± 0.00058	1.39675 ± 0.00058	1.396 ± 0.00058	1.3949 ± 0.00058	1.39375 ± 0.00058
w1 = 0.359	1.4061 ± 0.00058	1.4054 ± 0.00058	1.4046 ± 0.00058	1.4033 ± 0.00058	1.40235 ± 0.00058
w1 = 0.381	1.41155 ± 0.00058	1.4105 ± 0.00058	1.4097 ± 0.00059	1.4079 ± 0.00059	1.40725 ± 0.00058
w1 = 0.406	1.41705 ± 0.00058	1.41615 ± 0.00059	1.4147 ± 0.00059	1.4139 ± 0.00058	1.41305 ± 0.00059
w1 = 0.42	1.41995 ± 0.00058	1.41945 ± 0.00059	1.4183 ± 0.00059	1.41675 ± 0.00059	1.41585 ± 0.00058
w1 = 0.435	1.42345 ± 0.00059	1.423 ± 0.00059	1.422 ± 0.00059	1.4199 ± 0.00059	1.41875 ± 0.00059
w1 = 0.451	1.42755 ± 0.00059	1.42705 ± 0.00059	1.42585 ± 0.00059	1.4241 ± 0.00059	1.4229 ± 0.00059
w1 = 0.468	1.43175 ± 0.00059	1.43085 ± 0.00059	1.4295 ± 0.00059	1.4281 ± 0.00059	1.4272 ± 0.00059
w1 = 0.477	1.43375 ± 0.00059	1.433 ± 0.00059	1.4319 ± 0.00059	1.43035 ± 0.00059	1.4294 ± 0.00059
w1 = 0.487	1.4358 ± 0.00059	1.4352 ± 0.00059	1.4344 ± 0.00059	1.43245 ± 0.00059	1.4315 ± 0.00059
w1 = 0.497	1.43825 ± 0.00059	1.43755 ± 0.00059	1.43665 ± 0.00059	1.4347 ± 0.00059	1.43375 ± 0.00059
w1 = 0.507	1.441 ± 0.00059	1.44045 ± 0.00059	1.43855 ± 0.00059	1.43715 ± 0.00059	1.4362 ± 0.00059
w1 = 0.518	1.4437 ± 0.00059	1.443 ± 0.00059	1.44095 ± 0.00059	1.4393 ± 0.00059	1.4385 ± 0.00059
w1 = 0.529	1.4465 ± 0.00059	1.44635 ± 0.00059	1.44455 ± 0.00059	1.4423 ± 0.00059	1.44175 ± 0.00059
w1 = 0.54	1.4493 ± 0.00059	1.44905 ± 0.00059	1.44675 ± 0.00059	1.4451 ± 0.00059	1.44415 ± 0.00059
w1 = 0.553	1.4521 ± 0.00059	1.45205 ± 0.00059	1.4499 ± 0.0006	1.4473 ± 0.00059	1.44725 ± 0.00059
w1 = 0.565	1.45545 ± 0.00059	1.45505 ± 0.00059	1.4534 ± 0.00059	1.45115 ± 0.00059	1.45065 ± 0.00059
w1 = 0.579	1.45915 ± 0.00059	1.4587 ± 0.00059	1.4569 ± 0.0006	1.45455 ± 0.00059	1.4536 ± 0.00059
w1 = 0.584	1.46045 ± 0.00059	1.46015 ± 0.00059	1.4584 ± 0.0006	1.4559 ± 0.00059	1.4554 ± 0.00059
w1 = 0.59	1.46215 ± 0.00059	1.4614 ± 0.00059	1.4599 ± 0.0006	1.4579 ± 0.0006	1.45645 ± 0.00059
w1 = 0.595	1.4635 ± 0.00059	1.46305 ± 0.00059	1.46155 ± 0.0006	1.4595 ± 0.00059	1.4587 ± 0.00059
w1 = 0.601	1.46515 ± 0.00059	1.46505 ± 0.00059	1.4633 ± 0.0006	1.46085 ± 0.0006	1.4596 ± 0.00059
w1 = 0.607	1.4672 ± 0.00059	1.46635 ± 0.00059	1.465 ± 0.0006	1.46265 ± 0.00059	1.462 ± 0.00059
w1 = 0.613	1.4681 ± 0.00059	1.46775 ± 0.00059	1.4663 ± 0.0006	1.46415 ± 0.0006	1.46305 ± 0.00059
w1 = 0.62	1.4694 ± 0.00059	1.4693 ± 0.00059	1.4682 ± 0.00059	1.46645 ± 0.0006	1.46495 ± 0.00059
w1 = 0.626	1.47155 ± 0.00059	1.47145 ± 0.00059	1.46985 ± 0.0006	1.46845 ± 0.00059	1.46715 ± 0.0006
w1 = 0.632	1.4733 ± 0.00059	1.47285 ± 0.00059	1.4721 ± 0.0006	1.4698 ± 0.0006	1.4689 ± 0.00059
w1 = 0.639	1.47505 ± 0.00059	1.4747 ± 0.00059	1.47385 ± 0.00059	1.47195 ± 0.0006	1.4704 ± 0.00059
w1 = 0.646	1.4771 ± 0.00059	1.47675 ± 0.00059	1.4757 ± 0.0006	1.47355 ± 0.0006	1.4724 ± 0.0006
w1 = 0.652	1.478 ± 0.00059	1.47805 ± 0.00059	1.4773 ± 0.00059	1.4761 ± 0.0006	1.4745 ± 0.0006
w1 = 0.659	1.4809 ± 0.00059	1.4805 ± 0.00059	1.4795 ± 0.00059	1.4784 ± 0.0006	1.47655 ± 0.0006
w1 = 0.667	1.48275 ± 0.00059	1.4826 ± 0.00059	1.4813 ± 0.0006	1.48045 ± 0.0006	1.47875 ± 0.0006
w1 = 0.674	1.48485 ± 0.0006	1.4846 ± 0.0006	1.4835 ± 0.0006	1.48215 ± 0.0006	1.48105 ± 0.0006
w1 = 0.681	1.4875 ± 0.00059	1.48685 ± 0.00059	1.48595 ± 0.0006	1.48455 ± 0.0006	1.483 ± 0.0006
w1 = 0.689	1.4891 ± 0.0006	1.4885 ± 0.00059	1.4876 ± 0.0006	1.4865 ± 0.0006	1.4855 ± 0.0006
w1 = 0.697	1.49135 ± 0.0006	1.4907 ± 0.0006	1.4896 ± 0.0006	1.4884 ± 0.0006	1.4871 ± 0.0006
w1 = 0.705	1.49315 ± 0.0006	1.4922 ± 0.0006	1.49135 ± 0.0006	1.49005 ± 0.0006	1.48924 ± 0.0006
